The numbers were not newly measured in patent publication US11180518B2, “Phenyl-heterocycle-phenyl derivatives for use in the treatment or prevention of melanoma” (MAX-PLANCK-GESELLSCHAFT ZUR FÖRDERUNG DER WISSENSCHAFTEN …, priority 2017, dated 2021), which cites them from elsewhere.

The series relates to autophagy markers, LC3 and p62/SQSTM1. The conditions noted are these: mouse, in vivo; cited from earlier work.

For the molecule `Brc1cccc(-c2cc(-c3ccc4c(c3)OCO4)n[nH]2)c1` [anle138b, 5-(3-Bromophenyl)-3-(3,4-methylenedioxyphenyl)-1H-pyrazole], the “level of the autophagy markers, LC3 and p62/SQSTM1” value was “did not change”.
